Experimental data from patent US12508265B2, “Methods and compositions for reducing radiation induced toxicity” (Tosk, Inc., priority 2018, dated 2025).
Read-outs that look alike come from different tables or passages of the source.

Key:
[1] = system: surviving regenerating intestinal crypts; assay: Small intestinal crypt survival in murine total-body irradiation (TBI) model of intestinal mucositis; type: in vivo, Mouse (Mus musculus) C57BL6; settings: 12 Gy
From the text: The aim of the study whose results are provided in FIG. 2-6 was to determine the effect of TK-112690 on small intestinal crypt survival, in a murine total-body irradiation (TBI) model of intestinal mucositis.
• Animal Species: Mouse (Mus musculus) • Strain/substrain: C57BL6 (negative for Klebsiella oxytoca) • Source: Jackson Laboratories, MP-14, Bar Harbour, Me 04609, USA • Total animals: 40 males plus 5 spares • Body weight range: 18 to 25 g at start of treatment • Animal ages: 10 to 12 weeks at start of treatment • Housing: Animals were individually housed in rodent polycarbonated bins with bedding (irradiated Teklad sani chips) equipped with water bottles. Following group assignment, all cages were clearly labeled with a color-coded cage card indicating at least the study number and animal number. • Animal Identification: Each animal was individually identified using a permanent marker. • Group Animal Numbers: Each animal was given a four-number identification code. The first number corresponds to the respective dose group (1-4). The second number refers to whether the animal is the original animal, for instance the number 0, or a replacement, for instance 1, The third and fourth numbers identify the animal's rank within each group. • Room Environment: The animal room environment was set to maintain a temperature of 21±3° C., a relative humidity of 50±20%; and a light dark cycle of 12 hours light/12 hours dark, except during Study Plan-designated procedures. • Diet/Water: A standard certified commercial chow (Envigo Teklad Certified Irradiated Global Rodent Diet #2918C) was provided to the animals ad libitum except during designated procedures. Treats or fruits/vegetables were provided as part of the animal enrichment program. Concentrations of the contaminants (e.g., heavy metals, aflatoxin, organophosphate and chlorinated hydrocarbons) were routinely measured by the manufacturers. Acidified (pH between 2.75 and 3.25) municipal tap water (which had been exposed to ultraviolet light and purified by reverse osmosis) was provided to all animals ad libitum, except during designated procedures, via water bottles. Water bottles were changed at least every 3 days prior to irradiation and every 2 days after irradiation. Acidified water was changed every day after irradiation. During transportation and irradiation, animals were provided with food and water gel packs. Animals received water gel packs at least 2 days before transportation to acclimate to this type of hydration supplement and this procedure continued until necropsy. In addition, wetted food was provided to the animals on the bottom of the bins from Day 1 to the day of necropsy. • Acclimation: An acclimation period of at least 14 days was allowed between receipt of the animals and the start of dosing to accustom the animals to the laboratory environment. • Animal Assignment: During the acclimation period, animals were separately assigned to dose groups by a randomizing stratification system based on body weights. For logistical reasons, the animals were assigned to replicate subgroups, which may initiate dosing on different days.
The test item and reference item/vehicle are administered by intraperitoneal injection (ip) or oral gavage (po) 1.5 to 2 hour prior and 4 hours post irradiation and then twice daily (12 hours apart) for 4 consecutive days (Days 2 to 5), as shown below: […]

[2] = type: in vivo; settings: TK-112690 60 mg/kg ip or 240 mg/kg po bid plus uridine 60 mg/kg vs PBS; 12 Gy; ip and po combined; p=0.012
From the text: • Animal Species: Mouse (Mus musculus) • Strain/substrain: C57BL6 (negative for Klebsiella oxytoca) • Source: Jackson Laboratories, MP-14, Bar Harbour, Me 04609, USA • Total animals: 40 males plus 5 spares • Body weight range: 18 to 25 g at start of treatment • Animal ages: 10 to 12 weeks at start of treatment • Housing: Animals were individually housed in rodent polycarbonated bins with bedding (irradiated Teklad sani chips) equipped with water bottles. Following group assignment, all cages were clearly labeled with a color-coded cage card indicating at least the study number and animal number. • Animal Identification: Each animal was individually identified using a permanent marker. • Group Animal Numbers: Each animal was given a four-number identification code. The first number corresponds to the respective dose group (1-4). […] Concentrations of the contaminants (e.g., heavy metals, aflatoxin, organophosphate and chlorinated hydrocarbons) were routinely measured by the manufacturers. […]
Mortality checks were recorded concomitantly with the cage-side observations (see below for clinical signs), during all phases of the study. […]

[3] = Plasma concentration profile over 8 hours in mice (LC/MS); type: in vivo, CD-1 Female Mice; settings: mouse plasma; for half-life: female, CD-1, read-out: Elimination half-life (converted)
Method: FIG. 3 depicts a set of data expressing plasma concentration profile over 8 hours in mice administered either 60 mg/kg of TK-112690 ip or 240 mg/kg po by gavage. Plasma samples from 3 animals/timepoint were analyzed. CD-1 Female Mice (n=3) were dosed with either 60 (ip) or 240 (po) mg/kg TK-112690 in PBS. Blood samples were obtained at the designated timepoints, and the samples analyzed for drug using LC/MS.

Cc1cn2c(nc1=O)O[C@H]1[C@H](O)[C@@H](CO)O[C@H]12 [TK-112690]
number of surviving intestinal crypts in the jejunum, Z scores ([1]; TK-112690 60 mg/kg ip bid plus uridine 60 mg/kg vs PBS, p=0.029): ameliorates the mucosal damage in the jejunum
number of surviving intestinal crypts in the jejunum, Z scores ([1]; TK-112690 60 mg/kg ip or 240 mg/kg po bid (combined) plus uridine 60 mg/kg vs PBS, p=0.007): minimizes the mucosal damage in the jejunum
number of surviving intestinal crypts (jejunum, duodenum, ileum), Z scores ([1]; TK-112690 60 mg/kg ip or 240 mg/kg po bid plus uridine 60 mg/kg vs PBS, p=0.03): lessens the mucosal damage associated with radiation treatment
number of surviving intestinal crypts in the duodenum, Z scores ([1]; TK-112690 60 mg/kg ip or 240 mg/kg po bid plus uridine 60 mg/kg vs PBS, p=0.046): ameliorates the mucosal damage in the duodenum
number of surviving intestinal crypts in the jejunum, Z scores ([1]; TK-112690 240 mg/kg po bid plus uridine 60 mg/kg vs PBS, p=0.041): ameliorates the mucosal damage in the jejunum
difference in body weight between pre-treatment and day 6 (Z scores) [2]: modest, highly statistically significant (p=0.012) protection from weight loss
AUC0→Last ([3]; 60 mg/kg ip in PBS): Approximately 30 (micrograms/mL)*hour
AUC0→Last ([3]; 240 mg/kg po by gavage in PBS): ~40 (micrograms/mL)*hour
half-life ([3]; 60 mg/kg ip in PBS): ~2.5 h
half-life ([3]; 240 mg/kg po by gavage in PBS): ~2.5 h
